Read-outs that look alike come from different tables or passages of the source. Peptide text beside a SMILES is read from it.
Key:
[1] = test system: Staphylococcus aureus 68 (HER1049); format: cell-based
Method: (§1) To further validate the approach, a number of antimicrobial peptides identified during the in silico validation were synthesized. Their antimicrobial activity against Escherichia coli and Staphylococcus aureus were measured in a growth inhibitory assay. Details on the synthesis and assay are given in the supplementary material (see S1 Text). The peptides were obtained using h CAMP, the same predictor used during the previous validation. […]
(§2) Escherichia coli K12 MG1655 and Staphylococcus aureus 68 (HER1049) were obtained from the F´elix d’H´erelle Reference Center for Bacterial Viruses of Universit´e Laval (http://www.phage.ulaval.ca). Both strains were grown in Trypticase soy broth with agitation at 37◦C. The minimal inhibitory concentration assay was performed as described in [2] and broth microdilution protocol performed in 96-well plates.
(§3) The bacterial strains were grown overnight at 37◦C with aeration and diluted to a ﬁnal concentration of 5× 10^5 cfu/ml in the assay. The peptides were diluted in sterile water and were tested at the following concentrations: 0, 1, 2, 4, 8, 16 and 32µg/ml. The optical density (600nm) was followed every 30 minutes for 24 hours with a Synergy 2 plate reader (BioTek Instruments, Inc.). […]
(§4) 2.Wiegand I, Hilpert K, Hancock RE (2008) Agar and broth dilution methods to determine the minimal inhibitory concentration (mic) of antimicrobial substances. Nature protocols 3: 163–175.

[2] = test system: Escherichia coli K12 MG1655; format: cell-based
Method: as §1, §2, §3, §4

[3] = stated in words as the cause of the weak activity
Text: We used the proposed approach with the predictor h CAMP to generate a list of K = 1,000 peptide candidates with the highest predicted activity. From this list, we greedily selected three peptides such that they all differed by at least 4 amino acids from each others. This was done to maximize the chemical diversity among them. We then tested these peptides (Peptides #2, #3, #4) in a growth inhibitory assay. […] In a second series, we ensured that a filter for water solubility was employed.

[4] = test system: 24 bacteria such as Escherichia coli, Bacteroïdes fragilis, and Staphylococcus aureus; details: average potency over 24 bacteria; CAMPs training set value; cited from earlier work
Text: We observe a smooth power law with only a few peptides having outstanding biological activity, as expected.

bradykinin potentiation = details: BPPs training set value; cited from earlier work
Text: On the BPPs dataset, the proposed approach predicted that the pentapeptide IEWAK should have an activity of 2.195, slightly less than the best peptide of the training set (VEWAK, 2.73, predicted as 2.192). However, the predicted activity of IEWAK is much better than the average peptide activity of the dataset, which is 0.71. One may ask why IEWAK has a lower predicted biological activity than VEWAK, which was part of the training data. It is common for machine learning algorithms to sacrifice accuracy on the training data to prevent overfitting. Despite this small discrepancy, the model is ver ...

[5] = S. aureus 68 (HER1049), broth microdilution in 96-well plates, 5×10^5 cfu/ml, peptides in sterile water tested at 0, 1, 2, 4, 8, 16 and 32 µg/ml, OD 600 nm every 30 minutes for 24 hours, 37 °C
[6] = E. coli K12 MG1655, broth microdilution in 96-well plates, 5×10^5 cfu/ml, peptides in sterile water tested at 0, 1, 2, 4, 8, 16 and 32 µg/ml, OD 600 nm every 30 minutes for 24 hours, 37 °C

In the case of `CC[C@H](C)[C@H](NC(=O)[C@H](CCCNC(=N)N)NC(=O)[C@H](CCCNC(=N)N)NC(=O)[C@H](CC(C)C)NC(=O)[C@H](CCCCN)NC(=O)[C@H](CCCCN)NC(=O)[C@H](Cc1c[nH]c2ccccc12)NC(=O)[C@H](CCCCN)NC(=O)[C@H](CCCCN)NC(=O)[C@H](Cc1c[nH]c2ccccc12)NC(=O)[C@@H](N)Cc1ccc(O)cc1)C(=O)N[C@@H](Cc1ccccc1)C(=O)N[C@@H](CCSC)C(=O)N[C@@H](CC(C)C)C(=O)N[C@H](C(N)=O)C(C)C` [Peptide 1] (H-YWKKWKKLRRIFMLV-NH2; N-terminus assumed), the “MIC (μg/ml) S. aureus” value ([1]; 68 (HER1049, 24 h)) is reported as 8 µg/mL and the “MIC (μg/ml) >E. coli” value ([2]; K12, 24 h) is reported as 2 µg/mL.
With `CC[C@H](C)[C@H](NC(=O)[C@H](CCCNC(=N)N)NC(=O)[C@H](CCCNC(=N)N)NC(=O)[C@H](CC(C)C)NC(=O)[C@H](CCCCN)NC(=O)[C@H](CCCCN)NC(=O)[C@H](Cc1c[nH]c2ccccc12)NC(=O)[C@H](CCCNC(=N)N)NC(=O)[C@H](CCCCN)NC(=O)[C@H](Cc1c[nH]c2ccccc12)NC(=O)[C@@H](N)Cc1c[nH]c2ccccc12)C(=O)N[C@@H](Cc1ccccc1)C(=O)N[C@@H](CC(C)C)C(=O)N[C@@H](CCSC)C(=O)N[C@@H](CC(C)C)C(N)=O` [Peptide 2] (H-WWKRWKKLRRIFLML-NH2; N-terminus assumed) the “MIC (μg/ml) S. aureus” value ([1]; 68 (HER1049, 24 h)) was 4 µg/mL and the “MIC (μg/ml) >E. coli” value ([2]; K12, 24 h) was 4 µg/mL.
With `CC[C@H](C)[C@H](NC(=O)[C@H](CCCNC(=N)N)NC(=O)[C@H](CCCCN)NC(=O)[C@H](Cc1c[nH]c2ccccc12)NC(=O)[C@H](CCCNC(=N)N)NC(=O)[C@H](CCCCN)NC(=O)[C@H](Cc1c[nH]c2ccccc12)NC(=O)[C@@H](N)Cc1c[nH]c2ccccc12)C(=O)N[C@@H](CCCNC(=N)N)C(=O)N[C@@H](CCCNC(=N)N)C(=O)N[C@H](C(=O)N[C@@H](Cc1ccccc1)C(=O)N[C@@H](CCSC)C(=O)N[C@@H](CCSC)C(=O)N[C@H](C(N)=O)C(C)C)[C@@H](C)CC` [Peptide 3] (H-WWKRWKRIRRIFMMV-NH2; N-terminus assumed) the “MIC (μg/ml) S. aureus” value ([1]; 68 (HER1049, 24 h)) was 8 µg/mL and the “MIC (μg/ml) >E. coli” value ([2]; K12, 24 h) was 4 µg/mL.
With `CC(C)C[C@H](NC(=O)[C@H](CCCNC(=N)N)NC(=O)[C@H](CCCCN)NC(=O)[C@H](Cc1c[nH]c2ccccc12)NC(=O)[C@H](Cc1c[nH]c2ccccc12)NC(=O)[C@H](CCCCN)NC(=O)[C@H](Cc1c[nH]c2ccccc12)NC(=O)[C@@H](N)Cc1c[nH]c2ccccc12)C(=O)N[C@@H](CCCNC(=N)N)C(=O)N[C@@H](CCCNC(=N)N)C(=O)N[C@@H](CC(C)C)C(=O)N[C@@H](Cc1ccccc1)C(=O)N[C@@H](CC(C)C)C(=O)N[C@@H](CC(C)C)C(=O)N[C@H](C(N)=O)C(C)C` [Peptide 4] (H-WWKWWKRLRRLFLLV-NH2; N-terminus assumed) the “MIC (μg/ml) S. aureus” value ([1]; 68 (HER1049, 24 h)) was 16 µg/mL, the “MIC (μg/ml) >E. coli” value ([2]; K12, 24 h) was 16 µg/mL and the water solubility [3] was “poor”.
In the case of `CC[C@H](C)[C@H](NC(=O)CNC(=O)[C@H](CCCCN)NC(=O)[C@H](Cc1ccccc1)NC(=O)[C@H](CC(C)C)NC(=O)[C@H](CCCCN)NC(=O)[C@H](Cc1c[nH]c2ccccc12)NC(=O)[C@@H](N)CCCCN)C(=O)N[C@@H](CCCNC(=N)N)C(=O)N[C@@H](C)C(=O)N[C@H](C(=O)N[C@@H](CC(C)C)C(=O)N[C@@H](CCCCN)C(=O)N[C@H](C(=O)N[C@@H](CC(C)C)C(N)=O)C(C)C)C(C)C` [Peptide 5, reference compound] (H-KWKLFKGIRAVLKVL-NH2; N-terminus assumed), the “MIC (μg/ml) S. aureus” value [1, 5] is reported as 8 µg/mL and the “MIC (μg/ml) >E. coli” value [2, 6] is reported as 4 µg/mL.
In the case of `CC[C@H](C)[C@H](NC(=O)[C@H](CC(C)C)NC(=O)[C@H](CCCNC(=N)N)NC(=O)[C@H](Cc1c[nH]c2ccccc12)NC(=O)CN)C(=O)N[C@@H](CCCCN)C(=O)N[C@@H](CCCCN)C(=O)N[C@H](C(=O)N[C@@H](CC(C)C)C(=O)N[C@@H](CCCNC(=N)N)C(=O)N[C@H](C(=O)N[C@@H](Cc1ccccc1)C(=O)N[C@@H](CCCCN)C(=O)NCC(=O)N[C@@H](CC(C)C)C(N)=O)C(C)C)[C@@H](C)CC` [Peptide 6, reference compound] (H-GWRLIKKILRVFKGL-NH2; N-terminus assumed), the “MIC (μg/ml) S. aureus” value [1, 5] is given as 4 µg/mL, the “MIC (μg/ml) >E. coli” value [2, 6] is given as 4 µg/mL and the “antibacterial activity (logarithm of bactericidal potency)” value [4] is given as 0.824.
In the case of `CC[C@H](C)[C@H](NC(=O)CNC(=O)[C@H](CC(C)C)NC(=O)[C@H](Cc1ccccc1)NC(=O)[C@H](CC(C)C)NC(=O)[C@H](CCCCN)NC(=O)[C@H](Cc1c[nH]c2ccccc12)NC(=O)[C@@H](N)CCCCN)C(=O)N[C@@H](CC(C)C)C(=O)N[C@@H](C)C(=O)N[C@H](C(=O)N[C@@H](CC(C)C)C(=O)N[C@@H](CCCCN)C(=O)N[C@H](C(=O)N[C@@H](CC(C)C)C(N)=O)C(C)C)C(C)C` [Peptide 7, reference compound] (H-KWKLFLGILAVLKVL-NH2; N-terminus assumed), the “MIC (μg/ml) S. aureus” value [1, 5] is reported as greater than 32 µg/mL and the “MIC (μg/ml) >E. coli” value [2, 6] is reported as greater than 32 µg/mL.
For VEWAK, the “bioactivity (logarithm of the relative activity index compared to the peptide VESSK)” value (bradykinin potentiation) is listed as 2.73.

From publication PMC4388847, “Machine Learning Assisted Design of Highly Active Peptides for Drug Discovery” (PLoS Computational Biology, 2015)
